US20230085307A1, “PYRIDAZINONE COMPOUND AND HERBICIDE” (NISSAN CHEMICAL CORPORATION, priority 2019, published 2023)

What was measured:
[1] = system: barnyard grass; test: Test Example 3: herbicidal effect by foliage application, Wagner pot (Table 18, symbol H); format: in vivo, barnyard grass (Echinochloa crus-galli); conditions: amount of applied herbicide 320 g/ha
Outline: (§1)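 Plants were sown in alluvial soil held under 0.1–0.5 cm standing water and grown 14 days in a greenhouse at 25–30 °C. An emulsifiable formulation, water-diluted to the set dose, was then sprayed onto the foliage, and effects were scored three weeks later using previously defined criteria.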

[2] = system: Chinese sprangletop; test: Test Example 3: herbicidal effect by foliage application, Wagner pot (Table 18, symbol D); format: in vivo, chinese sprangletop (Leptochloa chinensis); conditions: amount of applied herbicide 320 g/ha
Outline: as §1

[3] = system: rice flat sedge; test: Test Example 3: herbicidal effect by foliage application, Wagner pot (Table 18, symbol E); format: in vivo, rice flat sedge (Cyperus iria); conditions: amount of applied herbicide 320 g/ha
Outline: as §1

[4] = system: southern crabgrass; test: Test Example 4: herbicidal effect by soil treatment (Table 19, symbol F); format: in vivo, southern crabgrass (Digitaria ciliaris); conditions: amount of applied herbicide 320 g/ha
Outline: (§2)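 Applied as a water-diluted emulsion, the compound was sprayed onto soil covering newly sown seeds. Evaluation came three weeks after application, in a greenhouse held at 25° C. to 30° C.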

[5] = system: green foxtail; test: Test Example 4: herbicidal effect by soil treatment (Table 19, symbol G); format: in vivo, green foxtail (Setaria viridis); conditions: amount of applied herbicide 320 g/ha
Outline: as §2

[6] = system: barnyard grass; test: Test Example 4: herbicidal effect by soil treatment (Table 19, symbol H); format: in vivo, barnyard grass (Echinochloa crus-galli); conditions: amount of applied herbicide 320 g/ha
Outline: as §2

[7] = system: wild oat; test: Test Example 4: herbicidal effect by soil treatment (Table 19, symbol I); format: in vivo, wild oat (Avena fatua); conditions: amount of applied herbicide 320 g/ha
Outline: as §2

[8] = system: blackgrass; test: Test Example 4: herbicidal effect by soil treatment (Table 19, symbol J); format: in vivo, blackgrass (Alopecurus myosuroides); conditions: amount of applied herbicide 320 g/ha
Outline: as §2

[9] = system: Italian ryegrass; test: Test Example 4: herbicidal effect by soil treatment (Table 19, symbol K); format: in vivo, Italian ryegrass (Lolium multiflorum); conditions: amount of applied herbicide 320 g/ha
Outline: as §2

[10] = system: windgrass; test: Test Example 4: herbicidal effect by soil treatment (Table 19, symbol L); format: in vivo, windgrass (Apera spica-venti); conditions: amount of applied herbicide 320 g/ha
Outline: as §2

[11] = system: velvetleaf; test: Test Example 4: herbicidal effect by soil treatment (Table 19, symbol M); format: in vivo, velvetleaf (Abutilon theophrasti); conditions: amount of applied herbicide 320 g/ha
Outline: as §2

[12] = system: redroot pigweed; test: Test Example 4: herbicidal effect by soil treatment (Table 19, symbol N); format: in vivo, redroot pigweed (Amaranthus retroflexus); conditions: amount of applied herbicide 320 g/ha
Outline: as §2

[13] = system: lambsquarters; test: Test Example 4: herbicidal effect by soil treatment (Table 19, symbol O); format: in vivo, lambsquarters (Chenopodium album); conditions: amount of applied herbicide 320 g/ha
Outline: as §2

[14] = system: chickweed; test: Test Example 4: herbicidal effect by soil treatment (Table 19, symbol P); format: in vivo, common chickweed (Stellaria media); conditions: amount of applied herbicide 320 g/ha
Outline: as §2

[15] = system: false cleavers; test: Test Example 4: herbicidal effect by soil treatment (Table 19, symbol Q); format: in vivo, false cleavers (Galium spurium); conditions: amount of applied herbicide 320 g/ha
Outline: as §2

[16] = system: persian speedwell; test: Test Example 4: herbicidal effect by soil treatment (Table 19, symbol R); format: in vivo, Persian speedwell (Veronica persica); conditions: amount of applied herbicide 320 g/ha
Outline: as §2

[17] = system: southern crabgrass; test: Test Example 5: herbicidal effect by foliage application, plastic box (Table 20, symbol F); format: in vivo, southern crabgrass (Digitaria ciliaris); conditions: foliage application, 320 g/ha, evaluated three weeks after application
Outline: (§3)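 Sow seeds spot-wise in sterilized diluvial soil; cover with ~1.5 cm soil. Grow 14 days in greenhouse, 25° C. to 30° C. Spray foliage with emulsion diluted to predetermined amount. Rate effect after 3 weeks.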

[18] = system: green foxtail; test: Test Example 5: herbicidal effect by foliage application, plastic box (Table 20, symbol G); format: in vivo, green foxtail (Setaria viridis); conditions: foliage application, 320 g/ha, evaluated three weeks after application
Outline: as §3

[19] = system: barnyard grass; test: Test Example 5: herbicidal effect by foliage application, plastic box (Table 20, symbol H); format: in vivo, barnyard grass (Echinochloa crus-galli); conditions: foliage application, 320 g/ha, evaluated three weeks after application
Outline: as §3

[20] = system: wild oat; test: Test Example 5: herbicidal effect by foliage application, plastic box (Table 20, symbol I); format: in vivo, wild oat (Avena fatua); conditions: foliage application, 320 g/ha, evaluated three weeks after application
Outline: as §3

[21] = system: blackgrass; test: Test Example 5: herbicidal effect by foliage application, plastic box (Table 20, symbol J); format: in vivo, blackgrass (Alopecurus myosuroides); conditions: foliage application, 320 g/ha, evaluated three weeks after application
Outline: as §3

[22] = system: Italian ryegrass; test: Test Example 5: herbicidal effect by foliage application, plastic box (Table 20, symbol K); format: in vivo, Italian ryegrass (Lolium multiflorum); conditions: foliage application, 320 g/ha, evaluated three weeks after application
Outline: as §3

[23] = system: windgrass; test: Test Example 5: herbicidal effect by foliage application, plastic box (Table 20, symbol L); format: in vivo, windgrass (Apera spica-venti); conditions: foliage application, 320 g/ha, evaluated three weeks after application
Outline: as §3

[24] = system: velvetleaf; test: Test Example 5: herbicidal effect by foliage application, plastic box (Table 20, symbol M); format: in vivo, velvetleaf (Abutilon theophrasti); conditions: foliage application, 320 g/ha, evaluated three weeks after application
Outline: as §3

[25] = system: redroot pigweed; test: Test Example 5: herbicidal effect by foliage application, plastic box (Table 20, symbol N); format: in vivo, redroot pigweed (Amaranthus retroflexus); conditions: foliage application, 320 g/ha, evaluated three weeks after application
Outline: as §3

[26] = system: lambsquarters; test: Test Example 5: herbicidal effect by foliage application, plastic box (Table 20, symbol O); format: in vivo, lambsquarters (Chenopodium album); conditions: foliage application, 320 g/ha, evaluated three weeks after application
Outline: as §3

[27] = system: chickweed; test: Test Example 5: herbicidal effect by foliage application, plastic box (Table 20, symbol P); format: in vivo, common chickweed (Stellaria media); conditions: foliage application, 320 g/ha, evaluated three weeks after application
Outline: as §3

[28] = system: false cleavers; test: Test Example 5: herbicidal effect by foliage application, plastic box (Table 20, symbol Q); format: in vivo, false cleavers (Galium spurium); conditions: foliage application, 320 g/ha, evaluated three weeks after application
Outline: as §3

[29] = system: persian speedwell; test: Test Example 5: herbicidal effect by foliage application, plastic box (Table 20, symbol R); format: in vivo, Persian speedwell (Veronica persica); conditions: foliage application, 320 g/ha, evaluated three weeks after application
Outline: as §3

SMILES	herbicidal effect on H: barnyard grass [1]	herbicidal effect on D: Chinese sprangletop [2]	herbicidal effect on E: rice flat sedge [3]	F: southern crabgrass, herbicidal effect rating [4]	G: green foxtail, herbicidal effect rating [5]	H: barnyard grass, herbicidal effect rating [6]	I: wild oat, herbicidal effect rating [7]	J: blackgrass, herbicidal effect rating [8]	K: Italian ryegrass, herbicidal effect rating [9]	L: windgrass, herbicidal effect rating [10]	M: velvetleaf, herbicidal effect rating [11]	N: redroot pigweed, herbicidal effect rating [12]	O: lambsquarters, herbicidal effect rating [13]	P: chickweed, herbicidal effect rating [14]	Q: false cleavers, herbicidal effect rating [15]	R: persian speedwell, herbicidal effect rating [16]	herbicidal effect on F: southern crabgrass [17]	herbicidal effect on G: green foxtail [18]	herbicidal effect on H: barnyard grass [19]	herbicidal effect on I: wild oat [20]	other results
CCOc1cc(F)ccc1-c1sc2ccc(Cl)cc2c1-c1c(O)c(C)nn(C)c1=O [2-115]	5 (Herbicidal rate of 90% or more (almost completely withered))	1 (Herbicidal rate of 5% or more and less than 20%)	3 (Herbicidal rate of 40% or more and less than 70%)	3 (Herbicidal rate of 40% or more and less than 70%)	2 (Herbicidal rate of 20% or more and less than 40%)	3 (Herbicidal rate of 40% or more and less than 70%)	0 (Herbicidal rate of 5% or less (almost no effect))	4 (Herbicidal rate of 70% or more and less than 90%)	0 (Herbicidal rate of 5% or less (almost no effect))	0 (Herbicidal rate of 5% or less (almost no effect))	1 (Herbicidal rate of 5% or more and less than 20%)	5 (Herbicidal rate of 90% or more (almost completely withered))	3 (Herbicidal rate of 40% or more and less than 70%)	3 (Herbicidal rate of 40% or more and less than 70%)	4 (Herbicidal rate of 70% or more and less than 90%)	4 (Herbicidal rate of 70% or more and less than 90%)	4 (Herbicidal rate of 70% or more and less than 90%)	3 (Herbicidal rate of 40% or more and less than 70%)	5 (Herbicidal rate of 90% or more (almost completely withered))	1 (Herbicidal rate of 5% or more and less than 20%)	herbicidal effect on J: blackgrass [21]: 3 (Herbicidal rate of 40% or more and less than 70%); herbicidal effect on K: Italian ryegrass [22]: 0 (Herbicidal rate of 5% or less (almost no effect)); herbicidal effect on L: windgrass [23]: 3 (Herbicidal rate of 40% or more and less than 70%); herbicidal effect on M: velvetleaf [24]: 5 (Herbicidal rate of 90% or more (almost completely withered)); herbicidal effect on N: redroot pigweed [25]: 5 (Herbicidal rate of 90% or more (almost completely withered)); herbicidal effect on O: lambsquarters [26]: 3 (Herbicidal rate of 40% or more and less than 70%); herbicidal effect on P: chickweed [27]: 5 (Herbicidal rate of 90% or more (almost completely withered)); herbicidal effect on Q: false cleavers [28]: 5 (Herbicidal rate of 90% or more (almost completely withered)); herbicidal effect on R: persian speedwell [29]: 5 (Herbicidal rate of 90% or more (almost completely withered))
Cc1nn(C)c(=O)c(-c2c(-c3ccc4c(c3)OCCO4)sc3ccc(Cl)cc23)c1O [2-127]	3 (Herbicidal rate of 40% or more and less than 70%)	0 (Herbicidal rate of 5% or less (almost no effect))	5 (Herbicidal rate of 90% or more (almost completely withered))	0 (Herbicidal rate of 5% or less (almost no effect))	0 (Herbicidal rate of 5% or less (almost no effect))	0 (Herbicidal rate of 5% or less (almost no effect))	0 (Herbicidal rate of 5% or less (almost no effect))	0 (Herbicidal rate of 5% or less (almost no effect))	0 (Herbicidal rate of 5% or less (almost no effect))	0 (Herbicidal rate of 5% or less (almost no effect))	4 (Herbicidal rate of 70% or more and less than 90%)	0 (Herbicidal rate of 5% or less (almost no effect))	4 (Herbicidal rate of 70% or more and less than 90%)	3 (Herbicidal rate of 40% or more and less than 70%)	0 (Herbicidal rate of 5% or less (almost no effect))	5 (Herbicidal rate of 90% or more (almost completely withered))	0 (Herbicidal rate of 5% or less (almost no effect))	0 (Herbicidal rate of 5% or less (almost no effect))	1 (Herbicidal rate of 5% or more and less than 20%)	0 (Herbicidal rate of 5% or less (almost no effect))	herbicidal effect on J: blackgrass [21]: 0 (Herbicidal rate of 5% or less (almost no effect)); herbicidal effect on K: Italian ryegrass [22]: 0 (Herbicidal rate of 5% or less (almost no effect)); herbicidal effect on L: windgrass [23]: 0 (Herbicidal rate of 5% or less (almost no effect)); herbicidal effect on M: velvetleaf [24]: 4 (Herbicidal rate of 70% or more and less than 90%); herbicidal effect on N: redroot pigweed [25]: 3 (Herbicidal rate of 40% or more and less than 70%); herbicidal effect on O: lambsquarters [26]: 3 (Herbicidal rate of 40% or more and less than 70%); herbicidal effect on P: chickweed [27]: 5 (Herbicidal rate of 90% or more (almost completely withered)); herbicidal effect on Q: false cleavers [28]: 0 (Herbicidal rate of 5% or less (almost no effect)); herbicidal effect on R: persian speedwell [29]: 5 (Herbicidal rate of 90% or more (almost completely withered))
